Source: US5098935A, “Carcinostatic or antitumor antibiotic, conagenin, and production and uses thereof” (Zaidan Hojin Biseibutsu Kagaku Kenkyu Kai, priority 1989, dated 1992)
Entries after “also recorded” stand apart in the source; their conditions may differ.

Experiments:
[1] = Acute toxicity (LD50), intraperitoneal administration to female ICR mice; conditions: mouse, in vivo
Method: Toxicity of Conagenin was tested by intraperitoneal administration to female ICR mice and estimated as its LD50 being higher than 50 mg/Kg.

[2] = test system: Ehrlich's solid carcinoma; assay: Inhibitory activity on Ehrlich's solid carcinoma in mice; type: in vivo, mice (ICR, female); conditions: for Percent inhibition (decrease in weight of solid carcinoma vs untreated control): once a day for 7 days from 7th day, weighed on 15th day
Method: (2) Inhibitory activity on Ehrlich's solid carcinoma in mice ICR mice (female, 6 weeks-aged, 4 mice in each group) were inoculated with Ehrlich's ascites carcinoma cells (2×10^6 per mouse in the form of a cell suspension) subcutaneously at the groin of the mice. After the 7th day from the inoculation of the carcinoma cells, an injectable solution of Conagenin was intraperitoneally injected into the carcinoma-bearing mice at a dosage of 6.25, 3.1, 1.56, 0.78, 0.39 and 0.195 mg/Kg once a day during the consecutive 7 days for each group of mice. On the 15th day from the inoculation of the carcinoma cells, the solid carcinoma so grown was cut off and the weight of the solid carcinoma was determined. Control test was conducted using 8 mice of the same type as above in a usual manner. Percent inhibition of the proliferation of the solid carcinoma, i.e. the percent decrease in the weight of the solid carcinoma in each treated group of mice administered with Conagenin as compared to that in the control group of mice (untreated), is callculated and shown in Table 3 below.

Leukemia L1210 cells = assay: Effect on the surface of carcinoma cell membrane: binding of radiolabelled Concanavalin A to Leukemia L1210 cells; type: cell-based
Method: Each of the resulting suspensions was incubated in a CO2 -incubator (CO2 concentration:5%) at 37° C. for 2 days. A radioisotope-labelled Concanavalin A (Concanavalin A N-[acetyl-^3 H] acetylated; a product of Amersham Co., Ltd.) in an amount of 40 nCi/ml was added to the suspension under incubation at a time of one hour before the end of the incubation. The incubated cells were fixed on a filter paper by a cell harvester and the radioactivity value of the cells so fixed was measured by a liquid scintillation counter. The respective values thus given were converted assumed that the radioactivity value of the control group sample was amounting to 100, and the converted values are shown in Table 4 as the increase in binding of Concanavalin A to L1210 cells.

Solubility = type: physicochemical
Acidic nature = type: physicochemical

## CC(O)C(C)C(O)C(=O)NC(C)(CO)C(=O)O (centres unmarked) [Conagenin]
[1]
  toxicity (in words): low toxicity
[1]; ip, intraperitoneal, female ICR mice
  LD50: > 50 mg/kg
[2]; 0.195 mg/Kg/day i.p.
  Percent inhibition (decrease in weight of solid carcinoma vs untreated control): 44%
[2]; 0.39 mg/Kg/day i.p.
  Percent inhibition (decrease in weight of solid carcinoma vs untreated control): 29%
[2]; 0.78 mg/Kg/day i.p.
  Percent inhibition (decrease in weight of solid carcinoma vs untreated control): 58%
[2]; 1.56 mg/Kg/day i.p.
  Percent inhibition (decrease in weight of solid carcinoma vs untreated control): 44%
[2]; 3.1 mg/Kg/day i.p.
  Percent inhibition (decrease in weight of solid carcinoma vs untreated control): 67%
[2]; 6.25 mg/Kg/day i.p.
  Percent inhibition (decrease in weight of solid carcinoma vs untreated control): 45%
[2]; Ehrlich's solid carcinoma in mice
  carcinostatic or antitumor activity in vivo (in words): significant carcinostatic or antitimor activity; also recorded: significant carcinostatic or antitumor activity in vivo
Leukemia L1210 cells
  binding of Concanavalin A to L1210 cells (in words): could increase the binding of Concanavalin A to L1210 cells
Leukemia L1210 cells; Mus musculus, L1210, 48 h, 0.25 μg/ml, 37° C., 2 days, control group = 100, read-out: Increase in binding of Concanavalin A
  activity at 0.25 µg/mL: < 100%
Leukemia L1210 cells; Mus musculus, L1210, 48 h, 0.5 μg/ml, 37° C., 2 days, control group = 100, read-out: Increase in binding of Concanavalin A
  activity at 0.5 µg/mL: 129%
Leukemia L1210 cells; Mus musculus, L1210, 48 h, 1.0 μg/ml, 37° C., 2 days, control group = 100, read-out: Increase in binding of Concanavalin A
  activity at 1 µg/mL: 121%
Solubility; chloroform
  Solubility in chloroform: insoluble; also recorded: sparingly soluble
Solubility; methanol
  Solubility in methanol: readily soluble; also recorded: Easily soluble
Solubility; water
  Solubility in water: soluble in water
Acidic nature
  acidity (in words): weakly acidic
